The series in a line: Thermal stability test (Gardner color of DMF solution before and after 150° C. for 3 hours). It counts as physicochemical. To be noted: for Color (Gardner color scale), after thermal processing for 3 hours / Color (Gardner color scale), initial: 2 g in 10 ml DMF; for Color (Gardner color scale), after thermal processing for 3 hours: 150° C. for 3 hours; for Color (Gardner color scale), initial: before thermal processing; for Change in color (delta color): before and after heating at 150° C. for 3 hours. Here is the method:
2 g each of the reactive UV absorber I of the present invention, the comparative reactive UV absorber A, and the comparative reactive UV absorber B represented by the following formula B (an embodiment of reactive UV absorber with formula (IIIb) disclosed by U.S. Pat. No. 5,459,222) were respectively dissolved in 10 ml of dimethylformamide (DMF), and the obtained dimethylformamide solutions were subjected to thermal processing at 150° C. for 3 hours. The Gardner color scales of the solutions were measured by colorimeter (Lovibond PFXi-195).

Experimental findings from patent US10717714B2, “Reactive ultraviolet absorber and application thereof” (CHITEC TECHNOLOGY CO., LTD., priority 2017, dated 2020) are described below.

Take `Cc1cc(CN(CCO)CCO)c(O)c(-n2n3c4ccccc4n23)c1` [Comparative reactive UV absorber B]: the “Color (Gardner color scale), after thermal processing for 3 hours” value came out at 7.2; the “Color (Gardner color scale), initial” value was 4.2; the “Change in color (delta color)” value is 3.0.
Taken in the same sequence, the figures for `CC(C)(C)c1cc(CCC(=O)N(CCO)CCO)cc(-n2n3c4ccccc4n23)c1O` [Comparative reactive UV absorber A] were 9.1, 5.4 and 3.7.
